Patent US20080200405A1, “Drug Resistance Reversal In Neoplastic Disease” (priority 2007, published 2008)

Legend:
[1] = Single-dose 10-minute intravenous infusion toxicokinetics of OT-551; type: in vivo, Sprague-Dawley rats; conditions: for Cmax of OT-551: Sprague-Dawley rats
Description: Blood for toxicokinetic evaluations was collected at pre-determined time points during and after the infusion. Plasma samples were analyzed for OT-551 and TP-H using validated LC/MS/MS assays. Descriptive toxicokinetic parameters were determined by standard model independent methods (Gilbaldi and Perrier, 1982) based on the plasma concentration-time data. […] The plasma concentrations were rounded to the nearest tenth of a ng/mL before the calculations. […] Nominal time points were used for all calculations. Since there was no apparent gender difference in the plasma concentrations of OT-551 and TP-H, the data for male and female rats at each sampling time point were pooled.

[2] = In vitro stability of OT-551 in rat plasma; type: in vitro ADME
Description: (§1) The active metabolite of OT-551 (Cyclopropanecarboxylic acid 1-hydroxy-2,2,6,6-tetramethyl-piperidin-4-yl ester) is TP-H. The objective of this analysis was to determine the in vitro half-life of OT-551 in rat, rabbit, dog, and human plasma under standardized incubation conditions.
(§2) OT-551 was incubated with pooled rat, rabbit, dog, and human plasma for various times under standardized incubation conditions. Pre-labeled tubes containing pooled plasma from rats, rabbits, dogs, and humans were pre-incubated in a shaking 37° C. water bath. A OT-551 solution was added to the tubes at a final concentration of 1000 ng/mL. Time zero samples (n=5) were immediately removed and transferred into tubes containing a stabilizer solution (DTPA, acetylcysteine and ascorbic acid), the LC/MS/MS assay internal standard and methanol. […] The tubes were vortexed, placed on ice, followed by centrifugation. One hundred-μL aliquots of the supernatant were transferred into HPLC sample vials. Additional tubes (n=5 at each time point) were incubated for 5, 10, 20, 30, 60, 120, and 240 minutes at 37° C. and thereafter processed. The amount of OT-551 and TP-H in each incubated sample was quantified using validated LC/MS/MS assays.

[3] = In vitro stability of OT-551 in rabbit plasma; type: in vitro ADME
Description: as §1, §2

TNFα = experiment: Measurement of LPS Induced-TNFα in THP-1 Cells; type: cell-based, human; conditions: Homo sapiens, THP-1; compound 10 uM; 5 ng/mL LPS; read-out: Mean Percent Inhibition of TNF-alpha using 5 ng/mL LPS
[4] = In vitro stability of OT-551 in dog plasma; type: in vitro ADME
Description: as §1, §2

[5] = tested on: bFGF-induced angiogenesis in the CAM model; experiment: bFGF (FGF2)-stimulated CAM model; type: in vivo, chicken; conditions: bFGF/FGF2 1 ug, 30 ug injected

CC1(C)CC(OC(=O)C2CC2)CC(C)(C)N1O.Cl [OT-551, 1-hydroxy-4-cyclopropanecarbonyloxy-2,2,6,6-tetramethylpiperidine hydrochloride]
peak plasma concentration of OT-551 at the end of the infusion ([1]; 10 mg/kg OT-551, 10-minute i.v. infusion): 980.5 ng/mL
plasma level of OT-551 one hour after termination of the infusion ([1]; 10 mg/kg, assay limit <50 ng/mL): not quantifiable
peak plasma concentration of OT-551 at the end of the infusion ([1]; 30 mg/kg OT-551, 10-minute i.v. infusion): 3487.1 ng/mL
peak plasma concentration of OT-551 at the end of the infusion ([1]; 100 mg/kg OT-551, 10-minute i.v. infusion): 29020.0 ng/mL
peak plasma concentration of OT-551 at the end of the infusion ([1]; 200 mg/kg OT-551, 10-minute i.v. infusion): 89740.8 ng/mL
plasma levels of OT-551 four hours after termination of the infusion ([1]; 30 to 200 mg/kg, assay limit <50 ng/mL): not quantifiable
Cmax of OT-551 ([1]; 10-minute iv infusion of OT-551 10 mg/kg): 980.5 ng/mL
Cmax of OT-551 ([1]; 10-minute iv infusion of OT-551 30 mg/kg): 3487.1 ng/mL
Cmax of OT-551 ([1]; 10-minute iv infusion of OT-551 100 mg/kg): 29020.0 ng/mL
Cmax of OT-551 ([1]; 10-minute iv infusion of OT-551 200 mg/kg): 89740.8 ng/mL
clearance of OT-551 in rats ([1]; rat, in vivo): very rapid
Concentrations (ng/mL) of OT-551 in Rat Plasma ([2]; incubation time 0 min): 806.50 ± 86.77 ng/mL
Concentrations (ng/mL) of OT-551 in Rat Plasma ([2]; incubation time 5 min): 770.32 ± 20.66 ng/mL
Concentrations (ng/mL) of OT-551 in Rat Plasma ([2]; incubation time 10 min): 745.77 ± 15.50 ng/mL
Concentrations (ng/mL) of OT-551 in Rat Plasma ([2]; incubation time 20 min): 682.88 ± 16.94 ng/mL
Concentrations (ng/mL) of OT-551 in Rat Plasma ([2]; incubation time 30 min): 613.79 ± 25.84 ng/mL
Concentrations (ng/mL) of OT-551 in Rat Plasma ([2]; incubation time 60 min): 480.48 ± 10.69 ng/mL
Concentrations (ng/mL) of OT-551 in Rat Plasma ([2]; incubation time 120 min): 277.94 ± 5.55 ng/mL
Concentrations (ng/mL) of OT-551 in Rat Plasma ([2]; incubation time 240 min): 80.70 ± 2.02 ng/mL
Concentrations (ng/mL) of OT-551 in Rabbit Plasma ([3]; incubation time 0 min): 502.75 ± 74.66 ng/mL
Concentrations (ng/mL) of OT-551 in Rabbit Plasma ([3]; incubation time 5 min): 14.56 ± 3.35 ng/mL
Concentrations (ng/mL) of OT-551 in Rabbit Plasma ([3]; incubation time 10 min): 0.00 ± 0.00 ng/mL
Concentrations (ng/mL) of OT-551 in Rabbit Plasma ([3]; incubation time 20 min): 0.00 ± 0.00 ng/mL
Concentrations (ng/mL) of OT-551 in Rabbit Plasma ([3]; incubation time 30 min): 0.00 ± 0.00 ng/mL
Concentrations (ng/mL) of OT-551 in Rabbit Plasma ([3]; incubation time 60 min): 0.00 ± 0.00 ng/mL
Concentrations (ng/mL) of OT-551 in Rabbit Plasma ([3]; incubation time 120 min): 0.00 ± 0.00 ng/mL
Concentrations (ng/mL) of OT-551 in Rabbit Plasma ([3]; incubation time 240 min): 0.00 ± 0.00 ng/mL
inhibition at 10 µM (TNFα): 68 ± 6%
Concentrations (ng/mL) of OT-551 in Dog Plasma ([4]; incubation time 0 min): 771.12 ± 21.68 ng/mL
Concentrations (ng/mL) of OT-551 in Dog Plasma ([4]; incubation time 5 min): 804.93 ± 17.45 ng/mL
Concentrations (ng/mL) of OT-551 in Dog Plasma ([4]; incubation time 10 min): 811.14 ± 21.06 ng/mL
Concentrations (ng/mL) of OT-551 in Dog Plasma ([4]; incubation time 20 min): 809.01 ± 18.58 ng/mL
Concentrations (ng/mL) of OT-551 in Dog Plasma ([4]; incubation time 30 min): 789.53 ± 13.73 ng/mL
Concentrations (ng/mL) of OT-551 in Dog Plasma ([4]; incubation time 60 min): 717.22 ± 25.73 ng/mL
Concentrations (ng/mL) of OT-551 in Dog Plasma ([4]; incubation time 120 min): 608.14 ± 25.96 ng/mL
Concentrations (ng/mL) of OT-551 in Dog Plasma ([4]; incubation time 240 min): 428.20 ± 12.03 ng/mL
inhibition in vivo at 0.03 mg ([5]; Gallus gallus, read-out: % Inhibition ± SEM): 74 ± 4%
Branch pts ± SEM [5]: 87 ± 3
